Measured values reported in PMC8267647, “Metallacarborane Derivatives Effective against Pseudomonas aeruginosa and Yersinia enterocolitica” (International Journal of Molecular Sciences, 2021).
Where two headings read alike, the source gives them in different places.

Key:
mammalian cell culture = conditions: cited from earlier work
MRSA = conditions: after 20 passages; cited from earlier work
[1] = test system: Y. enterocolitica strain PCM 2080 grown in the presence of 200 μM compounds; assay: Cross-resistance generation: IC50 on compound-evolved bacteria; type: cell-based, Yersinia enterocolitica; conditions: read-out: Resistance (IC50 value against the selected compound)
Experimental: (§1) Bacterial growth inhibition was measured on a Spark 10 M (Tecan, AT) microplate reader as described previously (Swietnicki et al., 2019). Briefly, a bacterial culture in LB medium grown at 37 °C overnight was diluted 1:100 with a fresh medium and aliquoted into a 96-well plate at 98 μL/well with a multichannel pipette. A 2 μL aliquot of compound serially diluted in DMSO was added in triplicates, the plate was covered with a lid or a transparent plate sealer, and incubated at 37 °C for up to 24 h. Bacterial growth was monitored by following an A600 reading every hour. After the experiment, the data were stored in Excel format, transferred into KaleidaGraph software (Synergy Software, Reading, PA, USA) and the A600 was plotted versus log [Concentration]. The IC50 values were determined by fitting the readings at the 8 h time point to a sigmoidal model of inhibition. Each experiment was repeated at least 3 times to verify the values.
The evolution was performed in parallel using blood agar and LB agar plates prepared in-house. Briefly, a 200 μL aliquot of 200 μM compound in PBS was added to a fresh agar plate, spread on the surface, and left to dry in a BSC cabinet for approximately 30 min. After that time, a single colony from an overnight culture on a plate was spread on the surface before the plate was covered with a lid and left at 37 °C to incubate overnight. The procedure was repeated at least nine times for each plate. After the last step, a single colony was selected from a plate and added to a 3 mL aliquot of LB medium. […] Dual selection on different plates was necessary in cases where the growth inhibition was too strong to obtain single colonies on LB agar plates. […] Until then, the colonies were supplied from bacteria grown on the blood agar plates.

[2] = test system: Pseudomonas aeruginosa strain PCM 499; assay: Bacterial growth inhibition IC50 in LB medium; type: cell-based; conditions: 8-h time point, Luria-Bertani medium, 37 °C; ± SEM; read-out: IC50 for growth inhibition, Pa499
Experimental: as §1

[3] = test system: Yersinia enterocolitica strain PCM 2090; assay: Bacterial growth inhibition IC50 in LB medium; type: cell-based; conditions: 8-h time point, Luria-Bertani medium, 37 °C; ± SEM; read-out: IC50 for growth inhibition, Ye 2090
Experimental: as §1

[4] = test system: Yersinia enterocolitica strain PCM 2080; assay: Bacterial growth inhibition IC50 in LB medium; type: cell-based; conditions: 8-h time point, Luria-Bertani medium, 37 °C; ± SEM; read-out: IC50 for growth inhibition, Ye 2080
Experimental: as §1

[5] = test system: Pseudomonas aeruginosa strain PCM 2058; assay: Bacterial growth inhibition IC50 in LB medium; type: cell-based; conditions: 8-h time point, Luria-Bertani medium, 37 °C; ± SEM; read-out: IC50 for growth inhibition, Pa 2058
Experimental: as §1

BALB/3T3 = assay: Antiproliferative SRB assay; type: cell-based, mouse; conditions: SRB method, 72 h of treatment; highest concentration 100 μM; read-out: IC50 72h (95% CI) BALB/3T3
Excerpt: (§2) Rockville, Maryland, USA).

[6] = test system: zebrafish (Danio rerio) larvae; assay: Danio rerio toxicity assay (modified Fish Embryo Toxicity test); type: in vivo; conditions: for mortality rate: day 5; for visible morphological deformities: concentrations up to 10 μM; for mortality (share of the population): 10 μM, day 5 post-exposure
Experimental: To determine acute toxicity of examined compounds modified Fish Embryo Toxicity (FET) test was performed of zebrafish (Danio rerio) according to OECD Test Guideline 236. Briefly, the collected embryos were transferred to a Petri dish with E3 medium (5 mM NaCl, 0.33 mM MgCl2, 0.33 mM CaCl2, 0.17 mM KCl; pH 7.2) and then placed in 24-well plates, 5 embryos per well, 10 per group. Stock solutions of boron cluster compounds were prepared in DMSO. In these experiments, three series of solutions with different concentrations were employed, which were freshly prepared by dissolving stock solutions in the E3 solution each time directly before addition to the wells. The solutions were changed once daily and the embryos were maintained in the incubator at 28.5 °C. Zebrafish embryos were evaluated for developmental abnormalities and viability at 24 h intervals for up to 5 days using a stereomicroscope (Zeiss Axio Vert, ZEISS, Germany). Morphological deformities of the heart, dorsal string, and tail development were measured and compared with the control embryos. Image analysis was performed to determine the percentage of dead and malformed embryos over time using Zeiss software. The experiment was performed in triplicate. Fish were taken from own fish facility of The Centre of Experimental Medicine, Medical University of Lublin. For the experiment AB OMD strain was used.
Figure 4 Toxicity of selected compounds on zebrafish (Danio rerio) larvae. Fish larvae were grown in 6-well plates in the presence of compounds for up to 5 days and the morphological deformities were analyzed from images as described under Materials and Methods. Representative photographs are shown. S, scoliosis; TA, tail autophagy; PE, pericardial edema.
Figure 5 Mortality rates of selected compounds on zebrafish (Danio rerio) larvae. The population size (n = 10) from Figure 4 was followed up to day 5 as described under Materials and Methods. Representative graphs are shown.

MCF 10A = assay: Antiproliferative SRB assay; type: cell-based, human; conditions: SRB method, 72 h of treatment; highest concentration 100 μM; read-out: IC50 72h (95% CI) MCF 10A
Excerpt: as §2

[7] = test system: drug-resistant Y. enterocolitica strain 2080; assay: SEM of drug-resistant bacteria; type: cell-based, Yersinia enterocolitica; conditions: for bacterial growth seen under SEM: bacteria passaged at least nine times with 200 μM compound; for mechanism of biological activity: from SEM, 200 μM
Experimental: Scanning electron microscopy of Y. enterocolitica was performed at a low accelerating voltage of the primary beam without any coating or heavy-metal contrasting of the samples, as described in previous work. Bacteria were applied onto a polished silicon crystal chip and allowed to adhere for 30 min. The samples were fixed with 2.5% glutaraldehyde in 0.1 M cacodylate buffer for 30 min at 4 °C, then washed in water and dehydrated in a series of methanol solutions (25%-50%-75%-100%-100%) in one-hour steps at 4 °C. Samples underwent critical point drying with methanol exchanged for liquid CO2 in an automatized approach, (CPD300 AUTO, Leica Microsystems, Vienna, Austria) and imaged with a cross-beam scanning electron microscope equipped with a Schottky field-emission cathode (Auriga 60, Carl Zeiss, Oberkochen, Germany) at 0.8 kV accelerating voltage. Thus, the imaging was performed within a mode referred to as the low-voltage, field-emission scanning electron microscopy (LV-FESEM) of nonlabeled, critical point-dried samples.
Figure 3 Scanning electron microscopy of drug-resistant Y. enterocolitica strain 2080. […] After exposure to compound 1 for nine passages, there were only fragments of organic debris visible (B). In the presence of compounds 7 and 3, there were multiple bacteria observed with apparently normal morphology. Scale bars: (A) and (B) 500 nm, (C) and (E) 2.5 μm, (D) and (F) 1 μm.

[8] = strain PCM 2080 grown with 200 μM compound 1 for at least nine generations
[9] = strain PCM 2080 grown with 200 μM compound 3 for at least nine generations
[10] = strain PCM 2080 grown with 200 μM compound 7 for at least nine generations
[11] = 2 μM, up to day 5 post-exposure
[12] = concentrations lower than 20 μM except 2 μM

## 3,3′-commo-bis[closo-1,2-dicarba-3-cobaltadodecaborate](1-) [COSAN, reference compound]
Mammalian cell culture
  concentration that reversibly blocks cell growth: above 100 µM

## 8-ethoxy-8′-iodo derivative of cobalt bis(1,2-dicarbollide) [Compound K121]
MRSA
  generation of resistance: not able to generate resistance

## Cs[8,8′-I2-3,3′-Co(1,2-C2B9H10)2] [Compound 1]
[1]; [8]
  IC50: 2.6 ± 0.2 µM
[1]; [9]
  IC50: 4 ± 1 µM
[1]; [10]
  IC50: 3.1 ± 1 µM
[2]
  IC50: 11.4 ± 1 µM
[3]
  IC50: 2.5 ± 1.4 µM
[4]
  IC50: 4.8 ± 3 µM
[5]
  IC50: 28.3 ± 6 µM
BALB/3T3
  IC50: 17 µM
Mammalian cell culture; mammalian cells
  change of ED50 versus COSAN: decreases the ED50 values approximately threefold
[6]; [11]
  mortality: none of the animals died
[6]; 20 μM, day 4
  mortality: lethal to all larvae
[6]; [12]
  mortality rate: 20%
[6]
  visible morphological deformities: induced visible morphological deformities
MCF 10A
  IC50: 59.8 µM
[7]
  bacterial growth seen under SEM: generally inhibited bacterial growth
  mechanism of biological activity: most likely being bactericidal

## Cs[8-O-CHEt2-8′-I-3,3′-Co(1,2-C2B9H10)2] [Compound 4]
[2]
  IC50: 52.9 ± 20 µM
[3]
  IC50: 5.3 ± 1 µM
[4]
  IC50: 6.7 ± 2.3 µM
[5]
  IC50: 72 ± 30 µM
BALB/3T3
  IC50: 11.3 µM
[6]; [11]
  mortality: none of the animals died
[6]
  mortality (share of the population): ≤ 20%
  visible morphological deformities: did not induce visible deformities
[6]; 20 μM, day 4
  mortality: lethal to all larvae
[6]; [12]
  mortality rate: 20%
MCF 10A
  IC50: 50 µM

## Cs[8-O-cyclo-C6H11-8′-I-3,3′-Co(1,2-C2B9H10)2] [Compound 5]
[2]
  IC50: 52.1 ± 10 µM
[3]
  IC50: 3.3 ± 1 µM
[4]
  IC50: 7.5 ± 4 µM
[5]
  IC50: 52.1 ± 15 µM
BALB/3T3
  IC50: 11.7 µM
[6]
  mortality (share of the population): ≤ 20%
  visible morphological deformities: did not induce visible deformities
[6]; 20 μM
  morphological deformities: deformities of dorsal string
  mortality rate: 20%
MCF 10A
  IC50: 46.3 µM

## Cs[8-O-iso-Bu-8′-I-3,3′-Co(1,2-C2B9H10)2] [Compound 3]
[1]; [8]
  IC50: 4.7 ± 1 µM
[1]; [9]
  IC50: 10.4 ± 3 µM
[1]; [10]
  IC50: 3.7 ± 1.2 µM
[2]
  IC50: 16.9 ± 8 µM
[3]
  IC50: 3.4 ± 1 µM
[4]
  IC50: 4.2 ± 1.8 µM
[5]
  IC50: 59 ± 30 µM
BALB/3T3
  IC50: 10.2 µM
MCF 10A
  IC50: 52.5 µM
[7]
  bacterial growth seen under SEM: did not inhibit the growth of bacteria
  mechanism of biological activity: blockage of bacterial cell division

## Cs[8-O-n-Bu-8′-I-3,3′-Co(1,2-C2B9H10)2] [Compound 2]
[2]
  IC50: 12.1 ± 4 µM
[3]
  IC50: 2.4 ± 0.7 µM
[4]
  IC50: 4.3 ± 1.5 µM
[5]
  IC50: 28 ± 8 µM
BALB/3T3
  IC50: 3.7 µM
MCF 10A
  IC50: 16.1 µM

## [8-NH2-CHEt2-8′-I-3,3′-Co(1,2-C2B9H10)2] [Compound 8]
BALB/3T3
  IC50: 0.023 µM
MCF 10A
  IC50: 0.045 µM

## [8-NH2-cyclo-C6H11-8′-I-3,3′-Co(1,2-C2B9H10)2] [Compound 9]
BALB/3T3
  IC50: 0.067 µM
MCF 10A
  IC50: 0.082 µM

## [8-NH2-iso-Bu-8′-I-3,3′-Co(1,2-C2B9H10)2] [Compound 7]
[1]; [8]
  IC50: > 37 µM
[1]; [9]
  IC50: > 100 µM
[1]; [10]
  IC50: > 100 µM
[2]
  IC50: 58.7 ± 20 µM
[3]
  IC50: 6.2 ± 0.7 µM
[4]
  IC50: 1.8 ± 0.8 µM
[5]
  IC50: 24.7 ± 8 µM
BALB/3T3
  IC50: 0.024 µM
MCF 10A
  IC50: 0.115 µM
[7]
  bacterial growth seen under SEM: did not inhibit the growth of bacteria
  mechanism of biological activity: blockage of bacterial cell division

## [8-NH2-n-Bu-8′-I-3,3′-Co(1,2-C2B9H10)2] [Compound 6]
BALB/3T3
  IC50: 0.29 µM
